Laboratory results taken from US20170022171A1, “2,5-DISUBSTITUTED CYCLOPENTANECARBOXYLIC ACIDS AND THEIR USE” (Bayer Pharma Aktiengesellschaft, priority 2014, published 2017).

test system: rat hepatocytes; test: Hepatocyte assay for determination of metabolic stability; assay type: in vitro ADME; conditions: after incubation with rat hepatocytes
Description: The metabolic stability of test compounds towards hepatocytes is determined by incubating the compounds at low concentrations (preferably below or around 1 μM) and at low cell counts (preferably at 1*10^6 cells/ml) in order to ensure maximum linearity of kinetic conditions in the experiment. Seven samples from the incubation solution are taken for the LC-MS analysis within a fixed time pattern, in order to determine the half-life (i.e. the degradation) of the particular compound. This half life is used to calculate various “Clearance” parameters (CL) and “Fmax” values (see below).
The CL and Fmax values are a measure of the phase 1 and phase 2 metabolism of the compounds in the hepatocytes. In order to minimize the influence of the organic solvent on the enzymes in the incubation batches, the concentration thereof is generally limited to 1% (acetonitrile) or 0.1% (DMSO).
For all species and breeds, a hepatocyte cell count in the liver of 1.1*10^8 cells/g of liver is expected.
The parameters calculated and the meanings thereof are: • Fmax well-stirred [%] maximum possible bioavailability after oral administration • Calculation: (1−CLblood well-stirred/QH)*100 • CLblood well-stirred [L/(h*kg)] calculated blood clearance (well-stirred model) • Calculation: (QH*CL′intrinsic)/(QH+CL′intrinsic) • CL′intrinsic[ml/(min*kg)] maximum ability of the liver (of the hepatocytes) to metabolize a compound (assuming that the liver blood flow is not rate-limiting) • Calculation: CL′intrinsic, apparent*species-specific hepatocyte count [1.1*10^8/g liver]*species-specific liver weight [g/kg] • CL′intrinsic, apparent[ml/(min*mg)] normalizes the elimination constant by dividing it by the hepatocyte cell count x used (x*10^6/ml) • Calculation: ke1[1/min]/(cell count [x*10^6]/incubation volume [ml]) • (QH=species-specific liver blood flow).

CLblood (calculated blood clearance, well-stirred) [L/h/kg]	Fmax (maximum possible bioavailability after oral administration, well-stirred) [%]	Molecule
1.01	76.1	Cc1ccc2nnn(C[C@H]3CC[C@@H](C(=O)c4ccc(OCc5ccccc5)cc4)[C@@H]3C(=O)O)c(=O)c2c1 (racemic) [Example 92, (+)-(1RS,2RS,5SR)-2-[4-(Benzyloxy)benzoyl]-5-[(6-methyl-4-oxo-1,2,3-benzotriazin-3(4H)-yl)methyl]cyclopentanecarboxylic acid]
0.50	88.2	Cc1ccc2nnn(C[C@H]3CC[C@@H](C(=O)c4ccc(OCc5ccc(F)cc5)cc4)[C@@H]3C(=O)O)c(=O)c2c1 (racemic) [Example 95, (+)-(1RS,2RS,5SR)-2-{4-[(4-Fluorobenzyl)oxy]benzoyl}-5-[(6-methyl-4-oxo-1,2,3-benzotriazin-3(4H)-yl)methyl]cyclopentanecarboxylic acid]
0.09	97.8	Cc1ccc2nnn(C[C@H]3CC[C@@H](C(=O)c4ccc(OCc5cccc(C(F)(F)F)c5)cc4)[C@@H]3C(=O)O)c(=O)c2c1 (racemic) [Example 101, (+)-(1RS,2SR,5RS)-2-[(6-Methyl-4-oxo-1,2,3-benzotriazin-3(4H)-yl)methyl]-5-(4-{[3-(trifluoromethyl)benzyl]oxy}benzoyl)cyclopentanecarboxylic acid]
0.99	76.3	Cc1ccc2nnn(C[C@H]3CC[C@@H](C(=O)c4ccc(OCc5cccc(Cl)c5)cc4)[C@@H]3C(=O)O)c(=O)c2c1 (racemic) [Example 104, (+)-(1RS,2RS,5SR)-2-{4-[(3-Chlorobenzyl)oxy]benzoyl}-5-[(6-methyl-4-oxo-1,2,3-benzotriazin-3(4H)-yl)methyl]cyclopentanecarboxylic acid]
0.40	90.4	Cc1ccc2nnn(C[C@H]3CC[C@@H](C(=O)c4ccc(OCc5cccc(OC(F)(F)F)c5)cc4)[C@@H]3C(=O)O)c(=O)c2c1 (racemic) [Example 110, (+)-(1RS,2SR,5RS)-2-[(6-Methyl-4-oxo-1,2,3-benzotriazin-3(4H)-yl)methyl]-5-(4-{[3-(trifluoromethoxy)benzyl]oxy}benzoyl)cyclopentanecarboxylic acid]

target: T1, human macrophage elastase (HME/hMMP-12) (Homo sapiens, UniProt P39900); test: In vitro HME inhibition test (standard or high-sensitivity); assay type: biochemical; conditions: in some cases mean values
T1 construct: 0.5 nM HME; purchased R&D Systems 917-MP
Method in brief: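 Fluorogenic assay: 0.5 nM autoactivated HME with 5 µM Mca-Pro-Leu-Gly-Leu-Glu-Glu-Ala-Dap(Dnp)-NH2 in HEPES pH 7.4 buffer (NaCl, CaCl2, ZnCl2, EDTA, Brij), 2 h at 37 °C; ex 323/em 393 nm. IC50 from fluorescence versus concentration. High-sensitivity format: ~0.05 nM enzyme, ~16 h incubation.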

T1 sequence (P39900 106-470): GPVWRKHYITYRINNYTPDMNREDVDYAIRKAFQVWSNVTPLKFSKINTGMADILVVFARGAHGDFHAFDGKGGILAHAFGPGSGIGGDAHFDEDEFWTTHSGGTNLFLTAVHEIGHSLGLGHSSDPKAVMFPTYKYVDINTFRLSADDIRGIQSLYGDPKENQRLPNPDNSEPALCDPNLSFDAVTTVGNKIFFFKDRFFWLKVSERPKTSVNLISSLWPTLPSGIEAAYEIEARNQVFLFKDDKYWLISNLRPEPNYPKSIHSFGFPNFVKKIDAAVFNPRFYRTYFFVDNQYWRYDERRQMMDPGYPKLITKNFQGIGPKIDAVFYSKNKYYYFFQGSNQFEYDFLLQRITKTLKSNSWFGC

IC50 [nM]	Molecule
470	COc1cccc(COc2ccc(C(=O)[C@@H]3CC[C@H](Cn4nnc5ccc(C)cc5c4=O)[C@H]3C(=O)O)cc2)c1 (single isomer, unassigned) [Example 108, (−)-(1RS,2RS,5SR)-2-{4-[(3-Methoxybenzyl)oxy]benzoyl}-5-[(6-methyl-4-oxo-1,2,3-benzotriazin-3(4H)-yl)methyl]cyclopentanecarboxylic acid]
140	Cc1ccc2nnn(C[C@H]3CC[C@@H](C(=O)c4ccc(OCc5cccc(OC(F)(F)F)c5)cc4)[C@@H]3C(=O)O)c(=O)c2c1 (single isomer, unassigned) [Example 111, (−)-(1RS,2SR,5RS)-2-[(6-Methyl-4-oxo-1,2,3-benzotriazin-3(4H)-yl)methyl]-5-(4-{[3-(trifluoromethoxy)benzyl]oxy}benzoyl)cyclopentanecarboxylic acid]
0.24	Cc1ccc2nnn(C[C@H]3CC[C@@H](C(=O)c4ccc(OCCc5ccccc5)cc4)[C@@H]3C(=O)O)c(=O)c2c1 (single isomer, unassigned) [Example 113, (+)-(1RS,2SR,5RS)-2-[(6-Methyl-4-oxo-1,2,3-benzotriazin-3(4H)-yl)methyl]-5-[4-(2-phenylethoxy)benzoyl]cyclopentanecarboxylic acid]
110	Cc1ccc2nnn(C[C@H]3CC[C@@H](C(=O)c4ccc(OCCc5ccccc5)cc4)[C@@H]3C(=O)O)c(=O)c2c1 (single isomer, unassigned) [Example 114, (−)-(1RS,2SR,5RS)-2-[(6-Methyl-4-oxo-1,2,3-benzotriazin-3(4H)-yl)methyl]-5-[4-(2-phenylethoxy)benzoyl]cyclopentanecarboxylic acid]
150	Cc1ccc2nnn(C[C@H]3CC[C@@H](C(=O)c4ccc(OCC5CCCCC5)cc4)[C@@H]3C(=O)O)c(=O)c2c1 (single isomer, unassigned) [Example 118, (−)-(1RS,2RS,5SR)-2-[4-(Cyclohexylmethoxy)benzoyl]-5-[(6-methyl-4-oxo-1,2,3-benzotriazin-3(4H)-yl)methyl]cyclopentanecarboxylic acid]
190	CCCCCCOc1ccc(C(=O)[C@@H]2CC[C@H](Cn3nnc4ccc(C)cc4c3=O)[C@H]2C(=O)O)cc1 (single isomer, unassigned) [Example 122, (−)-(1RS,2RS,5SR)-2-[4-(Hexyloxy)benzoyl]-5-[(6-methyl-4-oxo-1,2,3-benzotriazin-3(4H)-yl)methyl]cyclopentanecarboxylic acid]
0.062	CCCCCOc1ccc(C(=O)[C@@H]2CC[C@H](Cn3nnc4ccc(C)cc4c3=O)[C@H]2C(=O)O)cc1 (single isomer, unassigned) [Example 124, (+)-(1RS,2SR,5RS)-2-[(6-Methyl-4-oxo-1,2,3-benzotriazin-3(4H)-yl)methyl]-5-[4-(pentyloxy)benzoyl]cyclopentanecarboxylic acid]
6.7	CCCCCOc1ccc(C(=O)[C@@H]2CC[C@H](Cn3nnc4ccc(C)cc4c3=O)[C@H]2C(=O)O)cc1 (single isomer, unassigned) [Example 125, (−)-(1RS,2SR,5RS)-2-[(6-Methyl-4-oxo-1,2,3-benzotriazin-3(4H)-yl)methyl]-5-[4-(pentyloxy)benzoyl]cyclopentanecarboxylic acid]
0.037	COC(=O)Nc1cccc(COc2ccc(C(=O)[C@H]3CC[C@@H](Cn4nnc5ccc(C(F)(F)F)cc5c4=O)[C@@H]3C(=O)O)cc2)c1 (stereo in doubt) [Example 30, (+/−)-(1RS,2RS,5SR)-2-{4-({3-[(Methoxycarbonyl)amino]benzyl}oxy)benzoyl}-5-{[4-oxo-6-(trifluoromethyl)-1,2,3-benzotriazin-3(4H)-yl]methyl}cyclopentanecarboxylic acid]
4.1	(−)-(1RS,2RS,5SR)-2-{4-[(3,4-Dichlorobenzyl)oxy]benzoyl}-5-{[4-oxo-6-(trifluoromethyl)-1,2,3-benzotriazin-3(4H)-yl]methyl}cyclopentanecarboxylic acid [Example 29]
8.3	(−)-(1RS,2RS,5SR)-2-{4-[Cyclohexyl)methyl)sulphanyl]benzoyl}-5-{[4-oxo-6-(trifluoromethyl)-1,2,3-benzotriazin-3(4H)-yl]methyl}cyclopentanecarboxylic acid [Example 87]
33	(−)-(1RS,2SR,5RS)-2-{[4-Oxo-6-(trifluoromethyl)-1,2,3-benzotriazin-3(4H)-yl]methyl}-5-{4-[(2-phenylethy)sulphanyl]benzoyl}cyclopentanecarboxylic acid [Example 84]
